# Results published in US12558396B2, “Use of cyclo(His-Pro) (CHP) for preventing, alleviating or treating peritoneal fibrosis” (NOVMETAPHARMA CO., LTD., priority 2019, dated 2026).
# Assays:
# Type in all cases: in vivo, C57BL/6 male mice
# [1] = system: animal model of peritoneal fibrosis; experiment: Peritoneal tissue staining (PAS, Masson's trichrome, Sirius red) in animal model of peritoneal fibrosis; details: FIG. 1
# Protocol: (§1) In order to create an animal model of peritoneal fibrosis, 7-week-old C57BL/6 male mice were purchased from Koatech and bred under constant conditions (temperature: 22±2° C., relative humidity: 55±10%, circadian cycle: 12 hours). Five animals were grouped into one group, and water and food were freely supplied in cages, and they were used in the experiment after acclimatization for one week before the experiment. After the acclimatization period, 0.1% chlorohexidine was administered by intraperitoneal injection every 3 days for 30 days to establish an animal model of peritoneal fibrosis. […] Group 3 was orally administrated with CHP at a concentration of 17.5 mg/kg (CG-PD+CHP(17.5)), and Group 4 was orally administered with CHP at a concentration of 35 mg/kg (CG-PD+CHP(35)) through 1 mL syringes every day for 30 days.
# Among the experimental animals designed in Example 1-1, the peritoneum was obtained from the mice of the groups administered with the drug and 0.1% chlorohexidine for 30 days from the xyphoid process to the upper part of the pelvic cavity, and then sacrificed with whole blood. From the skin to the parietal peritoneum, the tissues of the left abdomen were excised in a size of 0.5×1.0 cm, and some were fixed in 10% formalin for immunostaining and then embedded in paraffin. The tissue sections were cut to a thickness of 4 μm and evaluated by performing Periodic acid-Schiff (PAS) staining, Masson's trichrome (MT) staining and Sirius Red staining to check the degree of peritoneal fibrosis. After observation with an optical microscope, photographs were taken (Olympus BX-50, Olympus Optical, Tokyo, Japan).
# [2] = system: animal model of peritoneal fibrosis; experiment: Immunohistochemical staining of ICAM-1 and F4/80 in peritoneum of animal model of peritoneal fibrosis; details: CHP 17.5 and 35 mg/kg orally, 30 days, vs CG-PD, FIG. 2
# Protocol: as §1
# Peritoneal tissues were extracted from the mice of each group of Example 1-1, fixed in 10% formalin for immunostaining and then embedded in paraffin. Using the streptavidin biotin peroxidase (Vector Laboratories) method, these were reacted with each of the anti-ICAM1 antibody and the […] at 4° C. for 16 hours, followed by color development with diaminobenzidine tetrahydrochloride (DAB) to confirm the expressions.
# [3] = system: animal model of peritoneal fibrosis; experiment: Western blot of collagen 1, αSMA, p16 and p21 in peritoneal tissue of animal model of peritoneal fibrosis; details: Western blot corrected by GAPDH, CHP 17.5 and 35 mg/kg orally, vs CG-PD, FIGS. 3a
# Protocol: as §1
# Isoflurane which is necessary for anesthesia and dissection of mice in each group of Example 1-1 was purchased from Hana Pharm, and VetEquip's RC2 Rodent Circuit Controller Anesthesia System was prepared. Phosphate-buffered saline (PBS) was purchased from Hyclone. In order to isolate the peritoneal tissue of the mice, the mice were anesthetized by respiratory anesthesia with 3 to 3.5% isoflurane. After blood was drawn from the heart of anesthetized mice, the peritoneal tissue was immediately removed, washed with PBS, and 50 mg of the peritoneal tissue was cut out and placed in 500 μL of RIPA buffer containing protease and phosphatase inhibitors, and it was crushed using IKA's T10 homogenizer. After standing on ice for 15 minutes, centrifugation was performed at 15000 rpm at 4° C. The supernatant was collected and the protein concentration was measured by BCA quantitation, and in the same amount of the samples, the protein was separated using the Bolt™ protein gel electrophoresis system, and then transferred to a nitrocellulose membrane. The membrane was blocked with 5% skim milk at room temperature for 1 hour, and then reacted with primary antibodies collagen 1, αSMA, NRF2, p16, p21 and GAPDH antibodies overnight at 4° C. After washing 3 times for 10 minutes with TBST, the reaction was performed with the secondary antibodies at room temperature for 1 hour. After washing 3 times for 10 minutes with TBST, the expression level was measured by reacting with ECL. The size of the appearing band was quantified using the ImageJ program, and each band size value was divided by the GAPDH band size value and corrected. Statistical significance was analyzed using Student's t-test statistical method with the peritoneal fibrosis control group (CG-PD) (*p<0.05, […], ***p<0.0005).
# [4] = system: animal model of peritoneal fibrosis; experiment: Real-time PCR of collagen 1, p21 and E-cadherin in peritoneal tissue of animal model of peritoneal fibrosis; details: real-time PCR corrected by GAPDH, CHP 17.5 and 35 mg/kg orally, vs CG-PD
# Protocol: as §1
# Isoflurane which is necessary for anesthesia and dissection of mice in each group of Example 1-1 was purchased from Hana Pharma, and VetEquip's RC2 Rodent Circuit Controller Anesthesia System was prepared. Phosphate-buffered saline (PBS) was purchased from Hyclone. In order to isolate the peritoneal tissue of the mice, the mice were anesthetized by respiratory anesthesia with 3 to 3.5% isoflurane. After blood was drawn from the heart of the anesthetized mice, the peritoneal tissue was immediately removed, 50 mg of the peritoneum was cut, 500 μL of NucleoZOL was added, and then it was crushed using IKA's T10 homogenizer. Subsequently, RNA was extracted according to NucleoZOL's total RNA isolation protocol, and cDNA was synthesized from 1 μg of RNA by reverse transcription polymerase chain reaction using the iScript cDNA synthesis kit. The synthesized cDNA was analyzed by real-time PCR with iQ SYBR Green Supermix using forward/reverse primer sets corresponding to each gene. The expression value of each gene was corrected by dividing by the expression value of GAPDH, a housekeeping gene. Statistical significance was analyzed using Student's t-test statistical method with the peritoneal fibrosis control group (CG-PD) (*p<0.05, […], ***p<0.0005).
smiles,measurement,setting,value
"O=C1N[C@@H](Cc2cnc[nH]2)C(=O)N2CCC[C@@H]12 [CHP, cyclo(His-Pro)]",thickened peritoneal layer (MT staining),"[1]; CHP 35 mg/kg administration group compared to 17.5 mg/kg administration group, oral, daily, 30 days",significantly reduced
same,deposition of immune cells (PAS staining),"[1]; CHP 17.5 and 35 mg/kg orally every day for 30 days, 0.1% chlorohexidine i.p. model, vs fibrosis control group (CG-PD)",significantly reduced in a concentration-dependent manner
same,accumulation of extracellular matrix (ECM) collagen (Sirius red staining),[1]; CHP 17.5 and 35 mg/kg orally every day for 30 days,significantly reduced in a concentration-dependent manner
same,expression level of ICAM-1 (IHC),[2],decreased
same,"infiltration of immune cells (f4/80-positive cells, IHC)",[2],rapidly decreased
same,extracellular matrix collagen (collagen 1) protein expression,[3]; 3b,statistically significantly decreased
same,α-SMA protein expression,[3]; 3c,statistically significantly decreased
same,p16 protein expression,[3]; 3e,significantly reduced
same,p21 protein expression,[3]; 3d,significantly reduced
same,mRNA expression of extracellular matrix collagen 1,[4]; FIG. 4a,decreased
same,p21 gene expression,[4]; FIG. 4b,significantly reduced
same,expression level of E-cadherin (gene),[4]; FIG. 4c,significantly increased
